In PubChem BioAssay (NCI):
Values joined by “and” are separate entries in the source; they are usually repeats but may differ in a detail not shown here. Equal entries are not always repeated.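 48-hour exposure; five concentrations; linearly interpolated endpoints. GI50 is the concentration that inhibits growth by half. The concentration for full growth arrest is given as TGI.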

What was measured:
Test in all cases: inhibition of tumour cell growth, NCI panel, 48 h
LOX IMVI melanoma = system: LOX IMVI melanoma
SK-MEL-5 melanoma = system: SK-MEL-5 melanoma
NCI-H522 lung = system: NCI-H522 lung
OVCAR-4 ovarian = system: OVCAR-4 ovarian
NCI-H23 lung = system: NCI-H23 lung
A549 NSCLC = system: A549 NSCLC
RXF 393 renal = system: RXF 393 renal
NCI-H226 lung = system: NCI-H226 lung
DU-145 prostate = system: DU-145 prostate
HCC-2998 colon = system: HCC-2998 colon

Row | Compound | GI50 (LOX IMVI melanoma) | TGI (LOX IMVI melanoma) | GI50 (SK-MEL-5 melanoma) | TGI (SK-MEL-5 melanoma) | GI50 (NCI-H522 lung) | TGI (NCI-H522 lung) | GI50 (OVCAR-4 ovarian) | TGI (OVCAR-4 ovarian) | GI50 (NCI-H23 lung) | TGI (NCI-H23 lung) | GI50 (A549 NSCLC) | TGI (A549 NSCLC) | GI50 (RXF 393 renal) | TGI (RXF 393 renal) | GI50 (NCI-H226 lung) | TGI (NCI-H226 lung) | GI50 (DU-145 prostate) | TGI (DU-145 prostate) | GI50 (HCC-2998 colon) | TGI (HCC-2998 colon)
1 | Cc1ccc(C(=O)Nc2cccc(C(F)(F)F)c2)cc1Nc1nc(-c2cccnc2)nc2c1cnn2C | 1.4 µM and 0.704 µM | 3.72 µM and 2.61 µM | 1.74 µM and 1.24 µM | 4.06 µM and 2.96 µM | 4.68 µM and 1.37 µM | 27.3 µM and 5.09 µM | 4.56 µM and 2.59 µM | 30.3 µM and > 10 µM | 1.81 µM and 1.3 µM | 12.8 µM and 9.54 µM | 3.2 µM and 2.11 µM | 16.1 µM and > 10 µM | 1.47 µM and 1.45 µM | 4.24 µM and 3.66 µM | 2.3 µM and 1.63 µM | 7.45 µM and 5.64 µM | 5.5 µM and 3.09 µM | 26.7 µM and > 10 µM | 1.11 µM and 0.632 µM | 3.35 µM and 2.62 µM
2 | COc1cc2c(cc1OCCCCOc1cc3c(cc1OC)C(=O)N1CCC[C@H]1CN3)N=C[C@@H]1CCCN1C2=O | 1.07 µM | > 32.5 µM | 0.463 µM | 1.62 µM | 0.072 µM | 0.386 µM | 4.61 µM | > 100 µM | 2.22 µM | 5.8 µM | 9.21 µM | > 100 µM | 0.29 µM | 1.45 µM | 1.94 µM | 4.49 µM | 2.46 µM | > 100 µM | 2 µM | 5.64 µM
3 | O=S(=O)(NCCNC/C=C/c1ccc(Br)cc1)c1cccc2cnccc12 | 7.64 µM and 12.1 µM | 25.6 µM and 25.2 µM | 6.07 µM and 13.3 µM | 19.3 µM and 26.5 µM | 12.6 µM and 13.7 µM | 26.6 µM and 28.3 µM | 5.51 µM and 7.36 µM | 18.6 µM and 23.6 µM | 11.3 µM and 13.1 µM | 25.8 µM and 27.5 µM | 11.3 µM and 13.6 µM | 24.9 µM and 27.4 µM | 3.37 µM and 9.08 µM | 15.6 µM and 22.3 µM | 12.3 µM and 13.7 µM | 30.7 µM and 34.5 µM | 12.4 µM and 14.5 µM | 25.1 µM and 27.6 µM | 3.18 µM and 3.91 µM | 10 µM and 14 µM
4 | C[C@]12CC[C@H]3[C@@H](CCC4=CC(=O)CC[C@@H]43)[C@@H]1CC[C@@H]2OC(=O)CCc1ccccc1 | 15.6 µM | 29.1 µM | 13 µM | 26 µM | 19.4 µM | 41.7 µM | 18.8 µM | 40.4 µM | 19.9 µM | 44.1 µM | 25.1 µM | > 73.7 µM | 19.6 µM | 43.5 µM | 16.5 µM | 34 µM | 15.6 µM | 32.5 µM | 29.7 µM | > 78.2 µM
5 | COc1ccc(-c2n[nH]nc2-c2cc(OC)c3c(c2OC)OCO3)cc1 | 0.746 µM | 19 µM | 0.684 µM | 17.7 µM | 0.486 µM | 3.67 µM | 4.81 µM | > 76.3 µM | 1.25 µM | 26.5 µM | 0.7 µM | > 58.8 µM | 1.1 µM | 5.37 µM | 9.69 µM | > 92.6 µM | 1.61 µM | 13.6 µM | 1.7 µM | 19.3 µM
6 | Clc1cc(Cl)c(OCC#CI)cc1Cl | 1.33 µM | 2.74 µM | 5.93 µM | 18.9 µM | 1.53 µM | 3.7 µM |  |  | 12.6 µM | 26.7 µM | 16.8 µM | 31.4 µM | 2.37 µM | 6.28 µM | 19.3 µM | 40.8 µM | 3.01 µM | 10 µM | 19.6 µM | 33.8 µM
